Data taken from US12054495B2, “Substituted macrocyclic compounds and related methods of treatment” (Alkermes, Inc., priority 2019, dated 2024).
Like-named read-outs stand apart in the source and are kept apart here.

How the values were obtained:
[1] = Hepatocytes stability assay (human hepatocytes); assay type: in vitro ADME; conditions: both sexes, cryopreserved hepatocytes, 1 μM test compound, 1×10^6 cell/mL, 37 degrees C, read-out: CLint (μL/min/million cells)
Procedure: (§1) In vitro metabolic stability was assessed using cryopreserved hepatocytes from male Sprague Dawley rats and a pool of 50 mixed gender humans (BioIVT, Baltimore, MD). The incubation mixtures were prepared by mixing 250 μL of pre-warmed KHB (Krebs-Henseleit buffer) containing 2×10^6 cell/mL of hepatocytes with 250 μL of pre-warmed KHB buffer containing 2 μM of test compounds in a 48-well plate, giving a final concentration of 1 μM test compound (0.1% DMSO) and 1×10^6 cell/mL of hepatocytes. The reaction mixture was incubated at 37 degrees C. A 50 μL aliquot of incubation mixture was taken at time points (0, 15, 30, 60, 120 and 240 minutes) and transferred into a 96-well plate containing 300 μL ice-cold acetonitrile (containing 30 ng/mL of labetalol and 10 ng/mL of Naltrexone-d3 as internal standards) and immediately placed in ice to terminate the reaction. Samples were centrifuged, and supernatants were transferred into 96-well plates for liquid chromatography with tandem mass spectrometry (LC-MS/MS) analysis to monitor the depletion of the test compound.
(§2) Data was calculated as percent remaining by assuming zero-minute time point peak area ratio (analyte/IS) as 100% and dividing remaining time point peak area ratios by zero-minute time point peak area ratio. Data were fitted to a first-order decay model to determine half-life. From a plot of log (ln) peak area against time, the slope of the line was determined. Subsequently, half-life (T1/2) and intrinsic clearance (CLint) were calculated using the equations below: Elimination rate constant (k)=(−slope) Half-life (T1/2)min=0.693/k Intrinsic Clearance (CLint) (mL/min/million cells)=(V×0.693)/T1/2 V=incubation volume mL/number of cells The in vitro T1/2 was converted to in vitro intrinsic clearance (CLint,hep) in units of mL/min/kg using the formula shown below:
(§3) [formula] The in vitro intrinsic clearance (CLint,hep) was scaled to in vivo hepatic clearance (CL,hep) using the following equation which was adapted from a well-stirred model.
(§4) [formula] where Q is the liver blood flow and fu is the fraction unbound (assumed to be unity in this case). All parameters used in the calculation are shown below (Table 4).
(§5) The extraction ratio (ER) was calculated by dividing the hepatic clearance of a compound to the liver blood flow. The data reported in Table 5 were obtained according to the human hepatocytes stability assay described above.

human hepatocytes = experiment: Hepatocytes stability assay (human hepatocytes); assay type: in vitro ADME; conditions: scaled hepatic clearance divided by liver blood flow, fu assumed unity
Procedure: as §1, §2, §3, §4, §5

[2] = target: T1, human orexin-2 receptor (OX2R) (Homo sapiens, UniProt O43614); experiment: Human OX2R IP1 assay; assay type: cell-based; conditions: T-Rex CHO cells stably overexpressing human OX2R, IP1 accumulation, 1 hr at 37 degrees C; mean EC50; ∧ = racemic mixture
T1 construct: expressed in transfected cells
T1 sequence (O43614 1-444): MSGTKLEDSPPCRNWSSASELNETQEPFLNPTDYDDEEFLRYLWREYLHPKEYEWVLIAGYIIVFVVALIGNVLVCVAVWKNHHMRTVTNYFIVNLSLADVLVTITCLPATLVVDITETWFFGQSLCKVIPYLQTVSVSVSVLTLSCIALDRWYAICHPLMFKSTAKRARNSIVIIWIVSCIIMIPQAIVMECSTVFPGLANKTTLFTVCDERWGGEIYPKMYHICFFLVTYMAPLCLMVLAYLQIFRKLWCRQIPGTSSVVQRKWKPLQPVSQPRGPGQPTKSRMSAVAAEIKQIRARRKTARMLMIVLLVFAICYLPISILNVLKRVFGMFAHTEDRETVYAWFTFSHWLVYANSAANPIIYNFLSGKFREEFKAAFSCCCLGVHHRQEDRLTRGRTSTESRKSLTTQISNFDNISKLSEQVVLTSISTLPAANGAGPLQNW
Procedure: T-Rex CHO cells stably overexpressing the human orexin-2 receptor (OX2R) were induced overnight with 1 μg/mL of doxycycline in a T225 flask. 24 hours post induction, cells were lifted with accutase and plated into a 384-well proxy plate at 30,000 cells/well. Cells were then treated with different test compounds in 1× stimulation buffer containing 10 mM Hepes, 1 mM CaCl2), 0.5 mM MgCl2, 4.2 mM KCl, 146 mM NaCl, 5.5 mM glucose, and 50 mM LiCl, pH 7.4, for 1 hr at 37 degrees C. Following incubation, the reaction was terminated by the addition of detection mix, which is composed of IP1-d2 and anti-IP1-cryptate diluted in lysis buffer as well as 1× stimulation buffer. The plates were allowed to incubate for 1 hour at room temperature and were then read in the EnVision® multimode plate reader, measuring inositol phosphate levels.
Cisbio IP1 is a cell-based functional assay quantifying the accumulation of inositol monophosphate (IP), a metabolite released as a result of orexin 2 receptor activation through the phospholipase C-Gq signaling pathway. This is a competitive immunoassay in which the IP1 produced by the cells upon receptor activation competes with the IP1 analog coupled to the d2 fluorophore (acceptor) for binding to an anti-IP1 monoclonal antibody labeled with Eu cryptate (donor). The measured HTRF-FRET based signal is inversely proportional to the IP1 concentration produced.
The EC50 values reported in Table 2 were obtained according to the human OX2R IP1 assay described above. Data are the mean EC50 values ±S.E.M. The compound methyl (2R,3S)-3-((methylsulfonyl)amino)-2-(((cis-4-phenylcyclohexyl)oxy)methyl)-piperidine-1-carboxylate is a reference compound which is disclosed in Example 5 of PCT publication no. WO2017/135306.

MDR1 = experiment: MDCK-MDR1 permeability assay; assay type: in vitro ADME; conditions: dog; for Papp A→B at 2 h, 3 μM: MDCK-MDR1, MDCK-MDR1 cells, apical to basolateral, 3 μM test compound, 2 hours at 37 degrees C; for efflux ratio at 2 h, 3 μM: MDCK-MDR1, Papp (basolateral to apical) divided by Papp (apical to basolateral), MDCK-MDR1 cells, read-out: Efflux ratio (ER)
Procedure: The bidirectional permeability (Apical to Basal and Basal to Apical directions) of test compounds in MDCK-MIDR1 cells were evaluated using MDCK-MIDR1 cells seeded in Solvo PreadyPort™ MIDCK 96-well plate. Once the plate was received from ReadyCell (Barcelona, Spain), it was treated as per PreadyPort™ user's manual.
For the Apical to Basolateral (A→B) permeability, 80 μL of test compound (3 μM) co-dosed with LY (Lucifer Yellow) (100 μM) in HBSS (Hank's Balanced Salt Solution) assay buffer was added to the donor side (A) while 250 μL of HBSS buffer was added to the receiver side (B). For the Basolateral to Apical (B→A) permeability, 255 μL of test compound (3 μM) in HBSS assay buffer was added to the donor side (B) while 75 μL of HBSS buffer containing LY (100 μM) was added to the receiver side (A).
The plate was placed in an incubator set at 37 degrees C. After 10 minutes of pre-warming, 5 μL aliquot was taken from donor compartment and set aside as the dosing solution. The MDCK-MDR1 incubation plate was placed back into the incubator for 2 hours of incubation at 37 degrees C. After 2 hours of incubation, 25 μL and 5 μL aliquots were removed from the receiver and donor sides, respectively. To the 5 μL aliquots taken from the donor sides (before and after a 2-hour incubation) were diluted with 20 μL of the HBSS buffer. All samples were mixed with 150 μL with acetonitrile containing internal standard (IS) and 200 μL water, and analyzed by LC-MS/MS.
The apparent permeability (Papp) was calculated using the following formula: Papp=dQ/dt×1/A×C0 where: • dQ/dt: amount of translocated material over incubation time (nmol/s) • A: area of insert (0.14 cm^2 for PreadyPort™ MDR1-96) • C0: initial concentration of product applied in apical (A→B) or basal (B→A) compartment (nmol/mL)
The efflux ratio (ER) was measured by dividing the Papp (basolateral to apical direction) by Papp (apical to basolateral direction). It is a general measure of the involvement of active processes. An ER>2 is considered positive for active transport.
The data reported in Table 3 were obtained according to the MDCK-MIDR1 permeability assay described above.

[3] = amide bond, 13-membered ring

SMILES	hepatocyte CLint at 1 μM [1]	Extraction Ratio (ER) (human hepatocytes)	EC50 [2]	Papp A→B at 2 h, 3 μM (MDR1)	efflux ratio at 2 h, 3 μM (MDR1)	ring closure, isolated yield ([3]; from CC(C)(C)OC(=O)N[C@H]1CCCN[C@H]1COC1CCC(c2ccnnc2OCC(=O)O)CC1, HATU/DIEA, MeCN, 0.94 mM, 25.0 °C, 2.0 h)	ring closure, isolated yield ([3]; from CC(C)(C)OC(=O)N([C@H]1CCN[C@H]1COC1CCC(c2ccccc2OCC(=O)O)CC1)S(C)(=O)=O, HATU/DIEA, MeCN, 2.4 mM, 2.0 h)	ring closure, isolated yield ([3]; from COc1ccc(CNC2CCNC2COC2CCC(c3cc(F)cc(F)c3OC(F)(F)C(=O)O)CC2)cc1, HATU/diisopropylamine, DCM/MeCN 1:1, 18.5 mM, 3.0 h)	ring closure, isolated yield ([3]; from CC(C)(C)OC(=O)N([C@H]1CCN[C@H]1COC1CCC(c2cccnc2OCC(=O)O)CC1)S(C)(=O)=O, HATU/DIEA, MeCN, 9.5 mM, 2.0 h)	ring closure, isolated yield ([3]; from CC(C)(C)OC(=O)NC1CCCNC1COC1CCC(c2ccncc2OCC(=O)O)CC1, HATU/DIEA, MeCN, 0.22 mM, 2.0 h)
CC(C)(C)OC(=O)N[C@H]1CCCN2C(=O)COc3nnccc3C3CCC(CC3)OC[C@@H]12	–	–	–	–	–	76%	–	–	–	–
CC(C)(C)OC(=O)N([C@H]1CCN2C(=O)COc3ccccc3C3CCC(CC3)OC[C@@H]12)S(C)(=O)=O	–	–	–	–	–	–	31%	–	–	–
COc1ccc(CNC2CCN3C(=O)C(F)(F)Oc4c(F)cc(F)cc4C4CCC(CC4)OCC23)cc1 (centres unmarked)	–	–	–	–	–	–	–	39.3%	–	–
[2H]C1([2H])COc2ccccc2C2CCC(CC2)OCC2[C@@H](NS(C)(=O)=O)CCCN21 (some centres unmarked) [Compound 60]	54 µL/min/1e6 cells	0.89	0.1 to 1 µM	8.8 ×10⁻⁶ cm/s	1.4	–	–	–	–	–
C[C@@H]1COc2ccccc2C2CCC(CC2)OCC2[C@@H](NS(C)(=O)=O)CCCN21 (some centres unmarked) [Compound 63]	40 µL/min/1e6 cells	0.86	> 1 µM	9.1 ×10⁻⁶ cm/s	0.75	–	–	–	–	–
C[C@H]1CN2CCC[C@H](NS(C)(=O)=O)C2COC2CCC(CC2)c2ccccc2O1 (some centres unmarked) [Compound 48]	60 µL/min/1e6 cells	0.90	< 0.1 µM	7.3 ×10⁻⁶ cm/s	1.5	–	–	–	–	–
CC(C)(C)OC(=O)N([C@H]1CCN2C(=O)COc3ncccc3C3CCC(CC3)OC[C@@H]12)S(C)(=O)=O	–	–	–	–	–	–	–	–	41.4%	–
[2H][C@@H]1[C@@H]2C[C@H]([2H])[C@@]([2H])(c3cc(F)cc(F)c3OCC(=O)N3CCC[C@H](NS(C)(=O)=O)C3CO2)[C@@H]1[2H] (some centres unmarked) [Compound 50]	16 µL/min/1e6 cells	0.70	< 0.1 µM	1.2 ×10⁻⁶ cm/s	21	–	–	–	–	–
CC(C)(C)OC(=O)NC1CCCN2C(=O)COc3cnccc3C3CCC(CC3)OCC12 (centres unmarked)	–	–	–	–	–	–	–	–	–	23.4%
C[C@H]1COc2ccccc2C2CCC(CC2)OCC2[C@@H](NS(C)(=O)=O)CCCN21 (some centres unmarked) [Compound 62]	18 µL/min/1e6 cells	0.89	> 1 µM	6.8 ×10⁻⁶ cm/s	2.2	–	–	–	–	–

Continued, in another order:

hepatocyte CLint at 1 μM [1]	Extraction Ratio (ER) (human hepatocytes)	EC50 [2]	Papp A→B at 2 h, 3 μM (MDR1)	efflux ratio at 2 h, 3 μM (MDR1)	SMILES	ring closure, isolated yield ([3]; from CC(C)(C)OC(=O)N[C@H]1CCCN[C@H]1COC1CCC(c2ccnnc2OCC(=O)O)CC1, HATU/DIEA, MeCN, 0.94 mM, 25.0 °C, 2.0 h)	ring closure, isolated yield ([3]; from CC(C)(C)OC(=O)N([C@H]1CCN[C@H]1COC1CCC(c2ccccc2OCC(=O)O)CC1)S(C)(=O)=O, HATU/DIEA, MeCN, 2.4 mM, 2.0 h)	ring closure, isolated yield ([3]; from COc1ccc(CNC2CCNC2COC2CCC(c3cc(F)cc(F)c3OC(F)(F)C(=O)O)CC2)cc1, HATU/diisopropylamine, DCM/MeCN 1:1, 18.5 mM, 3.0 h)	ring closure, isolated yield ([3]; from CC(C)(C)OC(=O)N([C@H]1CCN[C@H]1COC1CCC(c2cccnc2OCC(=O)O)CC1)S(C)(=O)=O, HATU/DIEA, MeCN, 9.5 mM, 2.0 h)	ring closure, isolated yield ([3]; from CC(C)(C)OC(=O)NC1CCCNC1COC1CCC(c2ccncc2OCC(=O)O)CC1, HATU/DIEA, MeCN, 0.22 mM, 2.0 h)
< 1.9 µL/min/1e6 cells	<0.22	0.1 to 1 µM	0.08 ×10⁻⁶ cm/s	22	CS(=O)(=O)N[C@@H]1CCCN2C(=O)COc3cccnc3[C@H]3CC[C@H](CC3)OC[C@H]12 (racemic) [Compound 15]	–	–	–	–	–
< 1.9 µL/min/1e6 cells	<0.22	0.1 to 1 µM	0.15 ×10⁻⁶ cm/s	12	CS(=O)(=O)N[C@@H]1CCCN2C(=O)COc3ccncc3[C@H]3CC[C@H](CC3)OC[C@H]12 (racemic) [Compound 45]	–	–	–	–	–
3 µL/min/1e6 cells	0.31	< 0.1 µM	0.09 ×10⁻⁶ cm/s	49	CS(=O)(=O)N[C@@H]1CCCN2C(=O)COc3cnccc3[C@H]3CC[C@H](CC3)OC[C@H]12 (racemic) [Compound 47]	–	–	–	–	–
30 µL/min/1e6 cells	0.82	< 0.1 µM	0.77 ×10⁻⁶ cm/s	18	C[C@H]1Oc2ccccc2C2CCC(CC2)OCC2[C@@H](NS(C)(=O)=O)CCCN2C1=O (some centres unmarked) [Compound 38]	–	–	–	–	–
5.8 µL/min/1e6 cells	0.46	< 0.1 µM	0.48 ×10⁻⁶ cm/s	3.8	CS(=O)(=O)N[C@H]1CCCN2C(=O)COc3ccccc3C3CC[C@@H](CO3)OCC12 (some centres unmarked) [Compound 8]	–	–	–	–	–
30 µL/min/1e6 cells	0.82	< 0.1 µM	0.91 ×10⁻⁶ cm/s	27	C[C@@H]1Oc2ccccc2C2CCC(CC2)OCC2[C@@H](NS(C)(=O)=O)CCCN2C1=O (some centres unmarked) [Compound 37]	–	–	–	–	–
6.7 µL/min/1e6 cells	0.50	< 0.1 µM	0.45 ×10⁻⁶ cm/s	2.6	CS(=O)(=O)N[C@H]1CCCN2C(=O)COc3ccccc3C3CC[C@H](CO3)OCC12 (some centres unmarked) [Compound 9]	–	–	–	–	–
